Test results taken from patent US20140323418A1, “SELECTIVE KINASE INHIBITORS” (PORTOLA PHARMACEUTICALS, INC., priority 2011, published 2014).

The compounds below were run against T1, full length active recombinant SYK enzyme (Homo sapiens, UniProt P43405) (assay: Inhibition of Syk tyrosine phosphorylation activity (LANCE TR-FRET kinase assay)). Settings: 1 nM SYK, 550 nM substrate, 100 μM ATP, 1 hour room temperature.
T1 construct: full length active recombinant SYK enzyme (Millipore, Calif.); purchased Millipore
Type: biochemical

Row | IC50 [nM] | Structure (SMILES)
1 | 100 to 1000 | NC(=O)c1cnc(NC2CCCc3cccnc32)nc1Nc1cccc(-n2nccn2)c1 (racemic) [Example 18, 4-(3-(2H-1,2,3-triazol-2-yl)phenylamino)-2-(5,6,7,8-tetrahydroquinolin-8-ylamino)pyrimidine-5-carboxamide]
2 | 1 to 10 | CCC(Nc1ncc(C(N)=O)c(Nc2cccc(C)c2)n1)C1(N)CC1 (racemic) [Example 125, (±)-2-(1-(1-aminocyclopropyl)propylamino)-4-(m-tolylamino)pyrimidine-5-carboxamide]
3 | 100 to 1000 | NC(=O)c1cnc(N[C@@H]2CCCC(=O)[C@@H]2N)nc1Nc1cccc(-n2nccn2)c1 (racemic) [Example 165]
4 | 10 to 100 | NC(=O)c1cnc(N[C@@H]2CCC[C@H](F)[C@@H]2N)nc1Nc1cccc(-n2nccn2)c1 (racemic) [Example 174]
5 | 10 to 100 | NC(=O)c1cnc(N[C@@H]2[C@H](F)CCC[C@@H]2N)nc1Nc1cccc(-n2nccn2)c1 (racemic) [Example 175, (±)-4-(3-(2H-1,2,3-triazol-1-yl)phenylamino)-2-((1S,2S,6R)-2-amino-6-fluorocyclohexylamino)pyrimidine-5-carboxamide]
6 | 1 to 10 | Cc1cccc(Nc2nc(N[C@@H]3CC[C@@H](C(=O)O)C[C@@H]3N)ncc2C(N)=O)c1 (racemic) [Example 187, (1R,3S,4R)-3-amino-4-(5-carbamoyl-4-(m-tolylamino)pyrimidin-2-ylamino)cyclohexanecarboxylic acid]
7 | 10 to 100 | CCOC(=O)[C@@H]1CC[C@@H](Nc2ncc(C(N)=O)c(Nc3cccc(C)c3)n2)[C@@H](N)C1 (racemic) [Example 188, (1R,3S,4R)-ethyl 3-amino-4-(5-carbamoyl-4-(m-tolylamino)pyrimidin-2-ylamino)cyclohexanecarboxylate]
8 | 1 to 10 | CNC(=O)[C@@H]1CC[C@@H](Nc2ncc(C(N)=O)c(Nc3cccc(C)c3)n2)[C@@H](N)C1 (racemic) [Example 189, 2-((1R,2S,4R)-2-amino-4-(methylcarbamoyl)cyclohexylamino)-4-(m-tolylamino)pyrimidine-5-carboxamide]
9 | 1 to 10 | Cc1cccc(Nc2nc(N[C@@H]3CC[C@@H](C(=O)N(C)C)C[C@@H]3N)ncc2C(N)=O)c1 (racemic) [Example 190, 2-((1R,2S,4R)-2-amino-4-(dimethylcarbamoyl)cyclohexylamino)-4-(m-tolylamino)pyrimidine-5-carboxamide]
10 | 10 to 100 | Cc1cccc(Nc2nc(N[C@@H]3CC[C@@H](C(=O)N4CC(F)(F)C4)C[C@@H]3N)ncc2C(N)=O)c1 (racemic) [Example 192, 2-((1R,2S,4R)-2-amino-4-(3,3-difluoroazetidine-1-carbonyl)cyclohexylamino)-4-(m-tolylamino)pyrimidine-5-carboxamide]
11 | 10 to 100 | Cc1cccc(Nc2nc(N[C@@H]3CC[C@@H](C(=O)N4CCCC4)C[C@@H]3N)ncc2C(N)=O)c1 (racemic) [Example 193, 2-((1R,2S,4R)-2-amino-4-(pyrrolidine-1-carbonyl)cyclohexylamino)-4-(m-tolylamino)pyrimidine-5-carboxamide]
12 | 10 to 100 | NC(=O)c1cnc(N[C@@H]2CCC[C@@H](F)[C@@H]2N)nc1Nc1cccc(-n2nccn2)c1 (racemic) [Example 242, (±)-4-(3-(2H-1,2,3-triazol-2-yl)phenylamino)-2-((1R,2R,3R)-2-amino-3-fluorocyclohexylamino)pyrimidine-5-carboxamide]
13 | 100 to 1000 | Cc1cccc(Nc2nc(N[C@@H]3C[C@@H](C(N)=O)CC[C@@H]3N)ncc2C(N)=O)c1 (racemic) [Example 243, 2-((1R,2S,5S)-2-amino-5-carbamoylcyclohexylamino)-4-(m-tolylamino)pyrimidine-5-carboxamide]
14 | 100 to 1000 | NC(=O)c1cnc(N[C@@H]2CCCC[C@@H]2CO)nc1Nc1cccc(-n2nccn2)c1 (racemic) [Example 256, 4-((3-(2H-1,2,3-triazol-2-yl)phenyl)amino)-2-(((1R,2S)-2-(hydroxymethyl)cyclohexyl)amino)pyrimidine-5-carboxamide]
15 | 10 to 100 | Cc1cccc(Nc2ncc(C(N)=O)c(NC3CCC(N)CC3)n2)c1 (stereo in doubt) [Example 246, 4-(trans-4-aminocyclohexylamino)-2-(m-tolylamino)pyrimidine-5-carboxamide]
16 | 10 to 100 | COc1cccc(Nc2ncc(C(N)=O)c(NC3CCC(N)CC3)n2)c1 (stereo in doubt) [Example 247, 4-(trans-4-aminocyclohexylamino)-2-(3-methoxyphenylamino)pyrimidine-5-carboxamide]
17 | 100 to 1000 | COc1ccc(Nc2ncc(C(N)=O)c(NC3CCC(N)CC3)n2)cn1 (stereo in doubt) [Example 248, 4-(trans-4-aminocyclohexylamino)-2-(6-methoxypyridin-3-ylamino)pyrimidine-5-carboxamide]
18 | 100 to 1000 | CN(C)c1ncc(C(N)=O)c(Nc2cccc(-n3nccn3)c2)n1 [Example 3, 4-(3-(2H-1,2,3-triazol-2-yl)phenylamino)-2-(dimethylamino)pyrimidine-5-carboxamide]

Row | IC50 [nM] | Structure (SMILES)
19 | 100 to 1000 | CCO[C@@H]1CCCC[C@H]1Nc1ncc(C(N)=O)c(Nc2cccc(-n3nccn3)c2)n1 [Example 6]
20 | 100 to 1000 | CCO[C@H]1CCCC[C@H]1Nc1ncc(C(N)=O)c(Nc2cccc(-n3nccn3)c2)n1 [Example 7, 4-(3-(2H-1,2,3-triazol-2-yl)phenylamino)-2-((1R,2S)-2-ethoxycyclohexylamino)pyrimidine-5-carboxamide]
21 | 100 to 1000 | [N-]=[N+]=N[C@H]1CCCC[C@H]1Nc1ncc(C(N)=O)c(Nc2cccc(-n3nccn3)c2)n1 [Example 8, 4-(3-(2H-1,2,3-triazol-2-yl)phenylamino)-2-((1R,2S)-2-azidocyclohexylamino)pyrimidine-5-carboxamide]
22 | 100 to 1000 | NC(=O)c1cnc(N[C@@H]2CCCC[C@@H]2n2ccnn2)nc1Nc1cccc(-n2nccn2)c1 [Example 9, 2-((1R,2S)-2-(1H-1,2,3-triazol-1-yl)cyclohexylamino)-4-(3-(2H-1,2,3-triazol-2-yl)phenylamino)pyrimidine-5-carboxamide]
23 | 100 to 1000 | NC(=O)c1cnc(N[C@@H]2CCCC[C@@H]2NC=O)nc1Nc1cccc(-n2nccn2)c1 [Example 10, 4-(3-(2H-1,2,3-triazol-2-yl)phenylamino)-2-((1R,2S)-2-formamidocyclohexylamino)pyrimidine-5-carboxamide]
24 | 100 to 1000 | N#CCN[C@H]1CCCC[C@H]1Nc1ncc(C(N)=O)c(Nc2cccc(-n3nccn3)c2)n1 [Example 11, 4-(3-(2H-1,2,3-triazol-2-yl)phenylamino)-2-((1R,2S)-2-(cyanomethylamino)cyclohexylamino)pyrimidine-5-carboxamide]
25 | 100 to 1000 | NC(=O)c1cnc(N[C@@H]2CCCC[C@@H]2NCCO)nc1Nc1cccc(-n2nccn2)c1 [Example 12, 4-(3-(2H-1,2,3-triazol-2-yl)phenylamino)-2-((1R,2S)-2-(2-hydroxyethylamino)cyclohexylamino)pyrimidine-5-carboxamide]
26 | 100 to 1000 | NC(=O)c1cnc(N[C@@H]2CCCC(F)(F)[C@@H]2N)nc1Nc1cccc(-n2nccn2)c1 [Example 13]
27 | 100 to 1000 | CC(NC1CCCC[C@H]1Nc1ncc(C(N)=O)c(Nc2cccc(-n3nccn3)c2)n1)N[C@H]1CCCC[C@H]1Nc1ncc(C(N)=O)c(Nc2cccc(-n3nccn3)c2)n1 (stereo partly drawn) [Example 15, 2,2′-(1R,1′R,2S,2′S)-2,2′-(ethane-1,1-diylbis(azanediyl))bis(cyclohexane-2,1-diyl)bis(azanediyl)bis(4-(3-(2H-1,2,3-triazol-2-yl)phenylamino)pyrimidine-5-carboxamide)]
28 | 100 to 1000 | NC(=O)c1cnc(N[C@H]2CCCC(F)(F)[C@H]2N)nc1Nc1cccc(-n2nccn2)c1 [Example 19]
29 | 10 to 100 | NC(=O)c1cnc(N[C@@H]2CCCC[C@@H]2N)nc1Nc1ccc(Br)c(-n2nccn2)c1 [Example 20, 2-((1R,2S)-2-aminocyclohexylamino)-4-(4-bromo-3-(2H-1,2,3-triazol-2-yl)phenylamino)pyrimidine-5-carboxamide]
30 | 10 to 100 | NC(=O)c1cnc(N[C@@H]2CCCC[C@@H]2N)nc1Nc1cc(Br)cc(-n2nccn2)c1 [Example 21, 2-((1R,2S)-2-aminocyclohexylamino)-4-(3-bromo-5-(2H-1,2,3-triazol-2-yl)phenylamino)pyrimidine-5-carboxamide]
31 | 1 to 10 | NC(=O)c1cnc(N[C@@H]2CCCC[C@@H]2N)nc1Nc1ccc(Cl)c(-n2nccn2)c1 [Example 22, 2-((1R,2S)-2-aminocyclohexylamino)-4-(4-chloro-3-(2H-1,2,3-triazol-2-yl)phenylamino)pyrimidine-5-carboxamide]
32 | 10 to 100 | NC(=O)c1cnc(N[C@@H]2CCCC[C@@H]2N)nc1Nc1cc(-n2nccn2)c(Cl)cc1Cl [Example 24, 2-((1R,2S)-2-aminocyclohexylamino)-4-(2,4-dichloro-5-(2H-1,2,3-triazol-2-yl)phenylamino)pyrimidine-5-carboxamide]
33 | 100 to 1000 | NC(=O)c1cnc(N[C@@H]2CCCC(F)(F)[C@@H]2N)nc1Nc1cccc(-c2ncccn2)c1 [Example 26, 2-(((1R,2R)-2-amino-3,3-difluorocyclohexyl)amino)-4-((3-(pyrimidin-2-yl)phenyl)amino)pyrimidine-5-carboxamide]
34 | 100 to 1000 | NC(=O)c1cnc(N[C@@H]2CCCC(F)(F)[C@@H]2N)nc1Nc1ccccc1 [Example 27, 2-(((1R,2R)-2-amino-3,3-difluorocyclohexyl)amino)-4-(phenylamino)pyrimidine-5-carboxamide]
35 | 10 to 100 | NC(=O)c1cnc(N[C@@H]2CCCC(F)(F)[C@@H]2N)nc1Nc1cccc(Cl)c1 [Example 28, 2-(((1R,2R)-2-amino-3,3-difluorocyclohexyl)amino)-4-((3-chlorophenyl)amino)pyrimidine-5-carboxamide]
